Experiments:
Format in all cases: cell-based
Pseudomonas fluorescence = assay: Growth of inoculated Pseudomonas fluorescence on meat under defined atmospheres; conditions: beef and poultry; high CO (95-100%) or low (10%) CO versus untreated
Experimental: (§1) Studies were carried out comparing growth of inoculated pathogenic bacteria on fresh meat under three atmospheres. Air and two CO containing modified atmospheres: high CO (95-100%) and low (10%) CO. In low CO MA CO was replaced by an inert gas, nitrogen. Note that in most experiments the CO untreated control was the same for both modified atmospheres. Experiments with E coli were carried out on different meat controls.

E coli = assay: Growth of inoculated E coli on meat under defined atmospheres; conditions: beef; high CO (95-100%) or low (10%) CO versus untreated
Experimental: as §1

Salmonella Typhimirium = assay: Growth of inoculated Salmonella Typhimirium on meat under defined atmospheres; conditions: beef; high CO (95-100%) or low (10%) CO versus untreated
Experimental: as §1

[1] = test system: bacteria present on the surface of meat samples; assay: Bacterial growth under air, CO and N2 atmospheres, non-selective agar plates (Bactoagar); conditions: 4 g meat samples flushed with gas, 24 h at 15±3° C.; plates overnight at 37° C.
Experimental: (§2) Meat samples weighing 4.00+0.18 grams, were treated by flushing with either air, CO, or N2. After twenty-four hours of storage at room temperature (15±3° C.) each of the treated meat samples was soaked in sterile 0.15M sodium chloride (1 ml per 2 grams of treated meat) for ninety minutes to extract any bacteria present on the surface of individual samples. Aliquots of serial dilutions of the extracts were plated onto non-selective agar plates (Bactoagar, Difco) and on Gram negative selective plates (MacConkey, Difco). All the plates were incubated over night at 37° C. to allow bacterial growth.

[2] = test system: Gram negative bacteria on the surface of meat samples; assay: Bacterial growth under air, CO and N2 atmospheres, Gram negative selective plates (MacConkey); conditions: 4 g meat samples flushed with gas, 24 h at 15±3° C.; MacConkey plates overnight at 37° C.
Experimental: as §2

Clostridium prefringens = assay: Growth of inoculated Clostridium prefringens on meat under defined atmospheres; conditions: beef and poultry; high CO (95-100%) or low (10%) CO versus untreated
Experimental: as §1

Staphylococcus aures = assay: Growth of inoculated Staphylococcus aures on meat under defined atmospheres; conditions: beef; high CO (95-100%) versus untreated
Experimental: as §1

Listeria monocytogenes = assay: Growth of inoculated Listeria monocytogenes on meat under defined atmospheres; conditions: beef and poultry; high CO (95-100%) or low (10%) CO versus untreated
Experimental: as §1

For `[C-]#[O+]` [CO, carbon monoxide], the “growth of Pseudomonas fluorescence” value (Pseudomonas fluorescence) was “inhibited”, the “growth of E coli” value (E coli) was “inhibited” and the “growth of Salmonella Typhimirium” value (Salmonella Typhimirium) was “inhibited”. For the same compound, the “No of calories, Grown on bactoagar (bacterial colony counts per gram of meat, mean±SD)” value [1] was “(0.29 ± 0.01) × 10^6 per gram of meat”, the “No of calories, Gram negative (bacterial colony counts per gram of meat, mean±SD)” value [2] was 0.02 ± 0.01) × 10^6 per gram of meat and the “growth of Clostridium prefringens” value (Clostridium prefringens) was “inhibited”. For the same compound, the “growth of Staphylococcus aures” value (Staphylococcus aures) was “inhibited” and the “growth of Listeria monocytogenes” value (Listeria monocytogenes) was “inhibited”.

With `N#N` [N2, nitrogen, reference compound] the “No of calories, Grown on bactoagar (bacterial colony counts per gram of meat, mean±SD)” value [1] was “(1.63 ± 0.3) × 10^6 per gram of meat” and the “No of calories, Gram negative (bacterial colony counts per gram of meat, mean±SD)” value [2] was “(0.46 + 0.25) × 10^6 per gram of meat”.

Source: patent US20040009273A1, “Method for the long-term preservation of meat and the meat process thereby” (priority 1996, published 2004)
